Experimental data reported in ChEMBL document CHEMBL1138225, “Synthesis and structure-activity relationships of 3,8-diazabicyclo[4.2.0]octane ligands, potent nicotinic acetylcholine receptor agonists” (J Med Chem, 2006).

Legend:
[1] = biological target: T1, Neuronal acetylcholine receptor; alpha4/beta2 (Homo sapiens, UniProt P17787+P43681); assay: Agonist activity at human alpha4beta2 ACHR expressed in HEK293 cells assessed as change in intracellular calcium concentration by FLIPR; type: functional, cell-based
[2] = biological target: Neuronal acetylcholine receptor; alpha4/beta2 (Rattus norvegicus, UniProt P09483+P12390); assay: Displacement of [3H]cytisine from alpha-4-beta-2 ACHR in rat brain homogenate; type: tissue-based
[3] = biological target: T1, Neuronal acetylcholine receptor; alpha4/beta2; assay: Maximal agonist activity on human alpha-4-beta-2 ACHR expressed in HEK293 cells assessed as change in intracellular calcium concentration by FLIPR relative to nicotine; type: functional, cell-based
Rattus norvegicus = assay: Activity in rat formalin model measured as reduction in flinches at 0.19 umol/kg, ip; type: functional; design: scale not given: the % may be the effect or the level left
[4] = biological target: T2, Neuronal acetylcholine receptor; alpha3/beta4 (Homo sapiens, UniProt P30926+P32297); assay: Maximal agonist activity at human alpha-3-beta-4 ACHR expressed in HEK293 cells assessed as change in intracellular calcium concentration by FLIPR relative to nicotine; type: functional, cell-based
[5] = biological target: T2, Neuronal acetylcholine receptor; alpha3/beta4; assay: Agonist activity at human alpha-3-beta-4 ACHR expressed in HEK293 cells assessed as change in intracellular calcium concentration by FLIPR; type: functional, cell-based

Chain of Neuronal acetylcholine receptor; alpha4/beta2 (Rattus norvegicus, UniProt P09483+P12390) (P09483 whole entry): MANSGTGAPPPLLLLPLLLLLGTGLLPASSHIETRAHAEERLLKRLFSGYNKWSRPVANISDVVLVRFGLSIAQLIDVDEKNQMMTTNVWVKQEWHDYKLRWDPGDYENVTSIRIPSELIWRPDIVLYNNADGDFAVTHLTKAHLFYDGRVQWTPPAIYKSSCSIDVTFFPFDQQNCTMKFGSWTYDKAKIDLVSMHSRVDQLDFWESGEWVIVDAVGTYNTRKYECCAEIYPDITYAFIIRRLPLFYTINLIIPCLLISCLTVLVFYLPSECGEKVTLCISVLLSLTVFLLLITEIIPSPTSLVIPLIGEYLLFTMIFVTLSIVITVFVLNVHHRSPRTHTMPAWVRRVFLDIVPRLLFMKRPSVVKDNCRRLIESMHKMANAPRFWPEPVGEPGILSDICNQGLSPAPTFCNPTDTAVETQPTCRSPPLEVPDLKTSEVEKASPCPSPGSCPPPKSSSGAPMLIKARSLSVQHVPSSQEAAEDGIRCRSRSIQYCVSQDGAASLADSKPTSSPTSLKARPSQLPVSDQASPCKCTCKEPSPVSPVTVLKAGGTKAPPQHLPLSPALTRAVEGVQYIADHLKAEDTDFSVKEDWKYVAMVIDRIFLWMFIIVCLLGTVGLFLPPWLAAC
Chain of Neuronal acetylcholine receptor; alpha4/beta2 (Rattus norvegicus, UniProt P09483+P12390) (P12390 whole entry): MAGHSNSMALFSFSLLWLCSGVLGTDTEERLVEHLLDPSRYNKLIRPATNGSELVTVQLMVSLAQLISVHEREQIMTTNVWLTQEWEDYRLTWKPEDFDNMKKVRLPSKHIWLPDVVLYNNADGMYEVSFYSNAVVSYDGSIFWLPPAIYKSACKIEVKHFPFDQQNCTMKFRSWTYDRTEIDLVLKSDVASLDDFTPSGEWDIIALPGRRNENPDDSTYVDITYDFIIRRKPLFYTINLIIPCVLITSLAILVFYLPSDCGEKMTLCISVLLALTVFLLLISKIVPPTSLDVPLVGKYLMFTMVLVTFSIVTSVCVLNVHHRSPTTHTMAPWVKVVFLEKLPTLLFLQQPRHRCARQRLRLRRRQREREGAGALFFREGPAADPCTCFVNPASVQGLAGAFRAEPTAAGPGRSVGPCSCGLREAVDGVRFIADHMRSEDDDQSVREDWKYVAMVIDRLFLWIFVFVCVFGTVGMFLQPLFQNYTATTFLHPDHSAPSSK
T1 sequence (P17787 whole entry): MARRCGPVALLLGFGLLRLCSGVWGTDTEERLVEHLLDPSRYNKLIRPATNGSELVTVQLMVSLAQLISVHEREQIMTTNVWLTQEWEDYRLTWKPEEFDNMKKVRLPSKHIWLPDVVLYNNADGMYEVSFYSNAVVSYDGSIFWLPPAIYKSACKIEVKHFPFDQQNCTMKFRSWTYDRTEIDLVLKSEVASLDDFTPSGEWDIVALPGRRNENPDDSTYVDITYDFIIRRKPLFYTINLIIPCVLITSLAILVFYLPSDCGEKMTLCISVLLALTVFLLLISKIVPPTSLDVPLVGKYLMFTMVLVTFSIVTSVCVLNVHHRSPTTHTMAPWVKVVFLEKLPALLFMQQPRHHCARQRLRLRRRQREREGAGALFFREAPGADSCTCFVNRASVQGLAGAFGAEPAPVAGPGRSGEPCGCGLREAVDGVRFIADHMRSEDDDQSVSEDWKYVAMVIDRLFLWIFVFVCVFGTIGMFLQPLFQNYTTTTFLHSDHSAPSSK
T1 sequence (P43681 whole entry): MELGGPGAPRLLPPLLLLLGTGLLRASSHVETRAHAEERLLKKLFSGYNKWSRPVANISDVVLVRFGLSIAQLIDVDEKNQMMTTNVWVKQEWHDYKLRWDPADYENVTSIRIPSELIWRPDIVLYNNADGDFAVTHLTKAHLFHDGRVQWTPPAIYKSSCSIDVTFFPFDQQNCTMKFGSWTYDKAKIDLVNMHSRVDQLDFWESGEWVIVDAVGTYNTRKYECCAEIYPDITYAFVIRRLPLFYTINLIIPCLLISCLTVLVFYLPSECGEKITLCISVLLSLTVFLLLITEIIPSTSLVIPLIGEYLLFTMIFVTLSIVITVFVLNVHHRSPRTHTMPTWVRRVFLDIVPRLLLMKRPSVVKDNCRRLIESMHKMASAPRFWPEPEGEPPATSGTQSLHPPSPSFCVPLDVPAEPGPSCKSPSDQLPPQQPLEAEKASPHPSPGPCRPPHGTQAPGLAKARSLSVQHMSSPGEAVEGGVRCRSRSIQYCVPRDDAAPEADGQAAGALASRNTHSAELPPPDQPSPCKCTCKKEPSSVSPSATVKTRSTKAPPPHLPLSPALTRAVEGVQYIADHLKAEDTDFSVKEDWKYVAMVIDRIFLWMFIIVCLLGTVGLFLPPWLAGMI
T2 sequence (P30926 whole entry): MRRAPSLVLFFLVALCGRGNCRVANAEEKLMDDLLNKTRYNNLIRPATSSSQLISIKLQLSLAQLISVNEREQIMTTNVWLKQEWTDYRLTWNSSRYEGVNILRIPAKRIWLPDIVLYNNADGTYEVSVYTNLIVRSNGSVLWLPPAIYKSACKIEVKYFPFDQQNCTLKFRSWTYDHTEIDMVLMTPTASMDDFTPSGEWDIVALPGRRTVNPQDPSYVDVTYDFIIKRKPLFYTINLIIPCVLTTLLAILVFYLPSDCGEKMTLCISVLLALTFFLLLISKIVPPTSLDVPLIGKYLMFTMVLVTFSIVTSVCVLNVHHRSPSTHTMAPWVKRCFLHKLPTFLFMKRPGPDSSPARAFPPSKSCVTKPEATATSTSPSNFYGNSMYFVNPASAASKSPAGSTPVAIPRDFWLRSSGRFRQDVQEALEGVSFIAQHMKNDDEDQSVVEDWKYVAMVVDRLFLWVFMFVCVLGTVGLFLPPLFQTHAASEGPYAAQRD
T2 sequence (P32297 whole entry): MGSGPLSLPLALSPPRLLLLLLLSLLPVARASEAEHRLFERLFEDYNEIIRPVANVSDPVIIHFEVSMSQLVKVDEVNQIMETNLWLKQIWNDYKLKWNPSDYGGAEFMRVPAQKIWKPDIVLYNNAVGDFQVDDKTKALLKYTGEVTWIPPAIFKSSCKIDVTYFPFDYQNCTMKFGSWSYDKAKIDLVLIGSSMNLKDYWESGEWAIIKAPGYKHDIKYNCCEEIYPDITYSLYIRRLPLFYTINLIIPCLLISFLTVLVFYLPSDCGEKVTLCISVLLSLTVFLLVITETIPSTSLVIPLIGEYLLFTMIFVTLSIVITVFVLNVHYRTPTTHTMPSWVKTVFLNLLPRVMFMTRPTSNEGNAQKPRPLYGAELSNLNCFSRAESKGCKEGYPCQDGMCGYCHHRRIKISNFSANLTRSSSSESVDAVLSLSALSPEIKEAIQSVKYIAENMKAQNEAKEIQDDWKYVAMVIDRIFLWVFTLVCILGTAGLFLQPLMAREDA

SMILES: Clc1ccc(N2C[C@@H]3CCNC[C@@H]32)cn1
- EC50 [1]: 37.4 nM
- Ki [2]: 0.12 nM
- Activity [3]: 94%
- Activity (Rattus norvegicus): 50%
- Activity [4]: 129%
- EC50 [5]: 1390 nM
